Test results as given in article PMC9831253, “Sequence-Defined Heteromultivalent Precision Glycomacromolecules Bearing Sulfonated/Sulfated Nonglycosidic Moieties Preferentially Bind Galectin-3 and Delay Wound Healing of a Galectin-3 Positive Tumor Cell Line in an In Vitro Wound Scratch Assay” (Macromolecular bioscience, 2020).

Legend:
Gal-3 (galectin-3) [1] = target: T1, Gal-3 (galectin-3) (Homo sapiens, UniProt P17931); test: ELISA-type inhibition and SPR inhibition; format: biochemical; conditions: glucose non-binding control; PBS pH 7.5
T1 construct: gene LGALS3; ELISA by an established protocol of Elling and co-workers
T1 sequence (P17931 2-250): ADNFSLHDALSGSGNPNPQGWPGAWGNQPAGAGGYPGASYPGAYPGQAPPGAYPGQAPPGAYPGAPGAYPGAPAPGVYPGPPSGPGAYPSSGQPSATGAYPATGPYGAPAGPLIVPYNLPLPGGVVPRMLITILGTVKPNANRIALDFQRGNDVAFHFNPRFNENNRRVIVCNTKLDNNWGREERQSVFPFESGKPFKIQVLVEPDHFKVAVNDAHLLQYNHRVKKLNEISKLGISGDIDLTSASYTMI

Gal-1 (galectin-1) = target: T2, Gal-1 (galectin-1) (Homo sapiens, UniProt P09382); test: ELISA-type inhibition of binding to asialofetuin; conditions: read-out: Gal-1 IC50 ± SD [× 10^-6M]^a)
T2 construct: gene LGALS1; ELISA by an established protocol of Elling and co-workers
T2 sequence (P09382 2-135): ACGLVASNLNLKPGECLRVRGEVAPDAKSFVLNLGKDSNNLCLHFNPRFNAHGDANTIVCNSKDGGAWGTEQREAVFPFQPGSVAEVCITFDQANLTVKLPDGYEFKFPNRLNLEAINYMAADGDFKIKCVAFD
Source text: ELISA-type inhibition of binding to asialofetuin on Gal-1 (galectin-1)

Gal-3 (galectin-3) [2] = target: T1, Gal-3 (galectin-3); test: ELISA-type inhibition of binding to asialofetuin; conditions: read-out: Gal-3 IC50 ± SD [× 10^-6M]^a)
Source text: ELISA-type inhibition of binding to asialofetuin on Gal-3 (galectin-3)

With `CC(=O)NCCOCCOCCNC(=O)CCC(=O)NCCN(CCNC(=O)CCC(=O)NCCN(CCNC(=O)CCC(=O)NCCN(CCNC(=O)CCC(=O)NCCN(CCNC(=O)CCC(=O)NCCN(CCNC(=O)CCC(N)=O)C(=O)CCc1cn(CCO[C@H]2O[C@H](CO)[C@@H](O)[C@H](O)[C@H]2O)nn1)C(=O)CCC(=O)NCc1ccccc1)C(=O)CCc1cn(CCO[C@H]2O[C@H](CO)[C@@H](O)[C@H](O)[C@H]2O)nn1)C(=O)CCC(=O)NCc1ccccc1)C(=O)CCc1cn(CCO[C@H]2O[C@H](CO)[C@@H](O)[C@H](O)[C@H]2O)nn1` [10b, Glc(1,3,5)-Bz(2,4)-6-Ac] the no inhibition (Gal-3 (galectin-3) [1]) was “nonbinding carbohydrate ligand (glucose, 9b-13b), we see no inhibition in both ELISA and SPR”.

In the case of `CC(=O)NCCOCCOCCNC(=O)CCC(=O)NCCN(CCNC(=O)CCC(=O)NCCN(CCNC(=O)CCC(=O)NCCN(CCNC(=O)CCC(=O)NCCN(CCNC(=O)CCC(=O)NCCN(CCNC(=O)CCC(N)=O)C(=O)CCc1cn(CCO[C@H]2O[C@H](CO)[C@@H](O)[C@H](O)[C@H]2O)nn1)C(=O)CCC(=O)Nc1ccc(S(=O)(=O)O)cc1)C(=O)CCc1cn(CCO[C@H]2O[C@H](CO)[C@@H](O)[C@H](O)[C@H]2O)nn1)C(=O)CCC(=O)Nc1ccc(S(=O)(=O)O)cc1)C(=O)CCc1cn(CCO[C@H]2O[C@H](CO)[C@@H](O)[C@H](O)[C@H]2O)nn1` [12b, Glc(1,3,5)-pSO3H Ph(2,4)-6-Ac], the no inhibition (Gal-3 (galectin-3) [1]) is reported as “nonbinding carbohydrate ligand (glucose, 9b-13b), we see no inhibition in both ELISA and SPR”.

In the case of `CC(=O)NCCOCCOCCNC(=O)CCC(=O)NCCN(CCNC(=O)CCC(N)=O)C(=O)CCc1cn([C@@H]2O[C@H](CO)[C@@H](O[C@@H]3O[C@H](CO)[C@H](O)[C@H](O)[C@H]3O)[C@H](O)[C@H]2O)nn1` [1b, Lac(1)-2-Ac], the IC50 (Gal-1 (galectin-1)) is reported as 296 ± 70 µM and the IC50 (Gal-3 (galectin-3) [2]) is reported as 123 ± 3 µM.

`CC(=O)NCCOCCOCCNC(=O)CCC(=O)NCCN(CCNC(=O)CCC(=O)NCCN(CCNC(=O)CCC(=O)NCCN(CCNC(=O)CCC(=O)NCCN(CCNC(=O)CCC(=O)NCCN(CCNC(=O)CCC(N)=O)C(=O)CCc1cn(CCO[C@H]2O[C@H](CO)[C@@H](O)[C@H](O)[C@H]2O)nn1)C(=O)CCC(=O)Nc1ccc(N)cc1)C(=O)CCc1cn(CCO[C@H]2O[C@H](CO)[C@@H](O)[C@H](O)[C@H]2O)nn1)C(=O)CCC(=O)Nc1ccc(N)cc1)C(=O)CCc1cn(CCO[C@H]2O[C@H](CO)[C@@H](O)[C@H](O)[C@H]2O)nn1` [11b, Glc(1,3,5)-pNH2Ph(2,4)-6-Ac] was tested, and the no inhibition (Gal-3 (galectin-3) [1]) was “nonbinding carbohydrate ligand (glucose, 9b-13b), we see no inhibition in both ELISA and SPR”.
